Measured values from patent US4727086A, “Certain anti-hypertensive 2,3-dihydrobenzofuran compounds” (Adir et Compagnie, priority 1985, dated 1988).

Experiments:
[1] = system: coronary artery of the dog; test: Contraction-inhibiting activity on the coronary artery of the dog (in vitro); type: cell-based; details: Canis lupus familiaris, 0.25 h, contraction induced by 100 mM potassium ions, reactivation with 10 and 20 mM calcium ions, 15-minute action, read-out: ED50 (dose capable of inhibiting 50% of the maximum contraction)
Procedure: Assessment of the Contraction-Inhibiting Activity on the Coronary Artery of the Dog
The inhibiting activity on contraction induced by calcium ions was assessed in vitro on the coronary artery of the dog according to the method described by Godfraind and Miller in Circ. Res. (1983) 52, No. 2, pp. 81-91. Contraction was induced by a solution containing 100 millimoles of potassium ions per liter. The compounds to be examined were then introduced in cumulative doses and after a 15-minute period of action the preparation was reactivated with solutions having a calcium ion concentration of 10 and 20 mM. The dose capable of inhibiting 50% (ED50) of the maximum contraction was assessed.

[2] = system: mongrel dogs; test: Haemodynamic effects in vivo in anaesthetised dogs
Procedure: Haemodynamic Effects In Vivo
The haemodynamic effects were assessed in mongrel dogs weighing from 25 to 30 kg which had been anaesthetised with sodium phenobarbital, had undergone a thoractomy at the 5th left intercostal space and carried electromagnetic rings at the level of the circumflex branch of the left coronary artery and at the level of the ascending aorta. The maximum bradycardic effect (E.B. max.), the mean coronary resistances (C.V.R.M.), the coronary output (C.B.F.M.), and the arterial pressure (P.A.) were measured after the intravenous injection of a dose of 300 μg/kg and 1000 μg/kg of the compounds of Examples 1 and 13.
Table 5 summarises the various results which are expressed as percentage increases (+%) or percentage decreases (-%) in the values in relation to those observed before treatment.

| Structure (SMILES) | IC50 [1] [µM] | further results |
| --- | --- | --- |
| COc1cccc(N2CCN(CCCC3(c4ccccc4)COc4ccc(Cl)cc43)CC2)c1 (centres unmarked) [Example 2, 5-chloro-3-phenyl-3-[3-(4-(3-methoxyphenyl)-1-piperazinyl)-propyl]-2,3-dihydrobenzofuran] | 10 |  |
| COc1ccc2c(c1)C(CCCN(C)CCc1ccc(OC)c(OC)c1)(c1ccc(C)cc1)CO2 (centres unmarked) [Example 5, 5-methoxy-3-(4-methylphenyl)-3-[3-(N-(3,4-dimethoxyphenethyl)-N-methylamino)-propyl]-2,3-dihydrobenzofuran] | 26 |  |
| COc1ccc2c(c1)C(CCCN(C)C1Cc3cc(OC)c(OC)cc3C1)(c1ccccc1)CO2 (centres unmarked) [Example 6, 5-methoxy-3-phenyl-3-[3-(N-(5,6-dimethoxy-2-indanyl)-N-methylamino)-propyl]-2,3-dihydrobenzofuran] | 10 |  |
| COc1ccc2c(c1)C(CCCN1CCc3cc(OC)c(OC)cc3C1)(c1ccccc1)CO2 (centres unmarked) [Example 7, 5-methoxy-3-phenyl-3-[3-(6,7-dimethoxy-1,2,3,4-tetrahydro-2-isoquinolyl)-propyl]-2,3-dihydrobenzofuran] | 6.3 |  |
| COc1ccc2c(c1)C(CCCN1CCN(C)CC1)(c1ccccc1)CO2 (centres unmarked) [Example 9, 5-methoxy-3-phenyl-3-[3-(4-methyl-1-piperazinyl)-propyl]-2,3-dihydrobenzofuran] | 35 |  |
| CCN(CC)CCCC1(c2ccccc2)COc2ccc(OC)cc21 (centres unmarked) [Example 10, 5-methoxy-3-phenyl-3-[3-(N-diethylamino)-propyl]-2,3-dihydrobenzofuran] | 6.1 |  |
| COc1ccc2c(c1)C(CCCN(C)CCc1ccc(OC)c(OC)c1)(c1ccccc1)C(O)O2 (centres unmarked) [Example 11, 2-Hydroxy-5-methoxy-3-phenyl-3-[3-(N-(3,4-dimethoxyphenethyl)-N-methylamino)-propyl]-2,3-dihydrobenzofuran phosphate] | 6.2 |  |
| COc1ccc(CCN(C)CCCC2(c3ccccc3)c3cc(OC)c(OC)cc3OC2O)cc1OC (centres unmarked) [Example 12, 2-hydroxy-5,6-dimethoxy-3-phenyl-3-[3-(N-(3,4-dimethoxyphenethyl)-N-methylamino)-propyl]-2,3-dihydrobenzofuran phosphate] | 8 |  |
| c1ccc(C2(CCCN3CCc4ccsc4C3)COc3ccccc32)cc1 (centres unmarked) [Example 14, 3-phenyl-3-[3-(1,2,6,7-tetrahydro-(2,3-c)-thieno-1-pyridinyl)-propyl]-2,3-dihydrobenzofuran] | 9 |  |
| c1ccc(C2(CCCN3CCOCC3)COc3ccccc32)cc1 (centres unmarked) [Example 15, 3-phenyl-3-[3-(4-morpholinyl)-propyl]-2,3-dihydrobenzofuran] | 50 |  |
| COc1cccc(N2CCN(CCCC3(c4ccccc4)COc4ccccc43)CC2)c1 (centres unmarked) [Example 16, 3-phenyl-3-[3-(4-(3-methoxyphenyl)-1-piperazinyl)-propyl]-2,3-dihydrobenzofuran] | 9 |  |

Continued, in another order:

| IC50 [1] [µM] | Structure (SMILES) | further results |
| --- | --- | --- |
| 1.7 | COc1ccc2c(c1)C(CCCN(C)CCc1ccc(OC)c(OC)c1)(c1ccccc1)CO2.O=P(O)(O)O (centres unmarked) [Example 1, 5-methoxy-3-phenyl-3-[3-(N-(3,4-dimethoxyphenethyl)-N-methylamino)-propyl]-2,3-dihydrobenzofuran phosphate] | CBFM (coronary output), % change vs before treatment ([2]; 300 μg/kg intravenous): +51%; CRVM (mean coronary resistances), % change vs before treatment ([2]; 300 μg/kg intravenous): -39%; EB max (maximum bradycardic effect), % change vs before treatment ([2]; 300 μg/kg intravenous): -7%; PA (arterial pressure), % change vs before treatment ([2]; 300 μg/kg intravenous): -9%; CBFM (coronary output), % change vs before treatment ([2]; 1000 μg/kg intravenous): +85%; CRVM (mean coronary resistances), % change vs before treatment ([2]; 1000 μg/kg intravenous): -57%; EB max (maximum bradycardic effect), % change vs before treatment ([2]; 1000 μg/kg intravenous): -13%; PA (arterial pressure), % change vs before treatment ([2]; 1000 μg/kg intravenous): -21% |
| 90 | COc1ccc(CCN(C)CCCC2(c3ccccc3)COc3cc(OC)c(OC)cc32)cc1OC (centres unmarked) [Example 3, 5,6-dimethoxy-3-phenyl-3-[3-(N-(3,4-dimethoxyphenethyl)-N-methylamino)-propyl]-2,3-dihydrobenzofuran] |  |
| 30 | COc1ccc(CCN(C)CCCC2(c3ccccc3)COc3ccc(Cl)cc32)cc1OC (centres unmarked) [Example 4, 5-chloro-3-phenyl-3-[3-(N-(3,4-dimethoxyphenethyl)-N-methylamino)-propyl]-2,3-dihydrobenzofuran] |  |
| 8.4 | COc1ccc2c(c1)C(CCCN(C)CCc1ccccc1)(c1ccccc1)CO2 (centres unmarked) [Example 8, 5-methoxy-3-phenyl-3-[3-(N-phenethyl-N-methylamino)-propyl]-2,3-dihydrobenzofuran] |  |
| 4 | COc1ccc(CCN(C)CCCC2(c3ccccc3)COc3ccccc32)cc1OC.O=P(O)(O)O (centres unmarked) [Example 13, 3-phenyl-3-[3-(N-(3,4-dimethoxyphenethyl)-N-methylamino)-propyl]-2,3-dihydrobenzofuran phosphate] | CBFM (coronary output), % change vs before treatment ([2]; 300 μg/kg intravenous): +31%; CRVM (mean coronary resistances), % change vs before treatment ([2]; 300 μg/kg intravenous): -36%; EB max (maximum bradycardic effect), % change vs before treatment ([2]; 300 μg/kg intravenous): -8%; PA (arterial pressure), % change vs before treatment ([2]; 300 μg/kg intravenous): -16%; CBFM (coronary output), % change vs before treatment ([2]; 1000 μg/kg intravenous): +59%; CRVM (mean coronary resistances), % change vs before treatment ([2]; 1000 μg/kg intravenous): -60%; EB max (maximum bradycardic effect), % change vs before treatment ([2]; 1000 μg/kg intravenous): -10%; PA (arterial pressure), % change vs before treatment ([2]; 1000 μg/kg intravenous): -31% |
